# Experimental data: US20240082296A1, “TREATMENT OF MUSCLE ATROPHY USING DEXTRAN SULFATE” (TX MEDIC AB, priority 2020, published 2024)
# Marks after values point to notes of the source that are not given here.
# Test system: severe traumatic brain injury (sTBI) in rats
# Test: HPLC of purine-pyrimidine / energy metabolites in rat brain after sTBI (Example 4)
# Assay type: in vivo
# Experimental: The effects of daily sub-cutaneous injections of dextran sulfate on glutamate excitotoxicity and mitochondrial function after severe traumatic brain injury (sTBI) in rats were evaluated by high-performance liquid chromatography (HPLC) analysis of frozen brain samples.
# The experimental protocol used in this study was approved by the Ethical Committee of the Catholic University of Rome, according to international standards and guidelines for animal care. Male Wistar rats of 300-350 g body weight (b.w.) were fed with standard laboratory diet and water ad libitum in a controlled environment.
# They were divided into three groups: • 1) n=6 animals subjected to sTBI, with drug administration after 30 minutes and sacrifice at 2 days post-TBI (Acute phase 1) • 2) n=6 animals subjected to severe-TBI, with drug administration after 30 minutes and sacrifice at 7 days post-TBI (Acute phase 2). • 3) n=6 animals subjected to severe-TBI, with drug administration after 3 days and sacrifice at 7 days post-TBI (Chronic phase).
# As the anesthetic mixture, animals received 35 mg/kg b.w. ketamine and 0.25 mg/kg b.w. midazolam by i.p. injection. sTBI was induced by dropping a 450 g weight from 2 m height on to the rat head that had been protected by a metal disk previously fixed on the skull, according to the “weight drop” impact acceleration model (Marmarou et al., A new model of diffuse brain injury in rats. Part I: Pathophysiology and biomechanics. J Neurosurg. 1994; 80: 291-300). […] At the end of each period of treatment, rats were anesthetized again and then immediately sacrificed.
# The drug treatment was a subcutaneous injection of 0.5 ml of dextran sulfate (Tikomed AB, Viken, Sweden, WO 2016/076780; 15 mg/kg) and administered according to the aforementioned schematic protocol.
# An in vivo craniectomy was performed in all animals during anesthesia, after carefully removing the rat's skull, the brain was exposed and removed with a surgical spatula and quickly dropped in liquid nitrogen. After the wet weight (w.w.) determination, tissue preparation was affected as previously disclosed (Tavazzi et al., Cerebral oxidative stress and depression of energy metabolism correlate with severity of diffuse brain injury in rats. Neurosurgery. 2005; 56: 582-589; Vagnozzi et al., Temporal window of metabolic brain vulnerability to concussions: mitochondrial-related impairment-part I. Neurosurgery. 2007; 61: 379-388; Tavazzi et al., Temporal window of metabolic brain vulnerability to concussions: oxidative and nitrosative stresses-part II. Neurosurgery. 2007; 61: 390-395; Amorini et al., Severity of experimental traumatic brain injury modulates changes in concentrations of cerebral free amino acids. J Cell Mol Med. 2017; 21: 530-542.). Briefly, whole brain homogenization was performed with 7 ml of ice-cold, nitrogen-saturated, precipitating solution composed by CH3CN+10 mM KH2PO4, pH 7.40, (3:1; v:v), and using an Ultra-Turrax set at 24,000 rpm/min (Janke & Kunkel, Staufen, Germany). After centrifugation at 20,690×g, for 10 min at 4° C., the clear supernatants were saved, pellets were supplemented with 3 ml of the precipitating solution and homogenized again as described above. A second centrifugation was performed (20,690×g, for 10 min at 4° C.), pellets were saved, supernatants combined with those previously obtained, extracted by vigorous agitation with a double volume of HPLC-grade CHCl3 and centrifuged as above. The upper aqueous phases containing water-soluble low-molecular weight compounds were collected, subjected to chloroform washings for two more times (this procedure allowed the removal of all the organic solvent and of any lipid soluble compound from the buffered tissue extracts), adjusted in volumes with 10 mM KH2PO4, pH 7.40, to have ultimately aqueous 10% tissue homogenates and saved at −80° C. until assayed. […]
# [1] = Acute phase 1 (15 mg/kg s.c. 30 min after sTBI, sacrifice 2 days post-TBI)
# [2] = Acute phase 2 (15 mg/kg s.c. 30 min after sTBI, sacrifice 7 days post-TBI)
substance,measurement,setting,value
dextran sulfate,ADO concentration,[1],71.67 ± 15.87 nmol/g (w.w.)
same,ADP concentration,[1],279.34 ± 29.59^b nmol/g (w.w.)
same,ADP-ribose concentration,[1],137.87 ± 43.18^a nmol/g (w.w.)
same,AMP concentration,[1],"53.61 ± 17.91^a,c,j nmol/g (w.w.)"
same,ATP concentration,[1],"1464.25 ± 99.09^a,h nmol/g (w.w.)"
same,CDP choline concentration,[1],"10.93 ± 3.22^b,h nmol/g (w.w.)"
same,CDP concentration,[1],"25.53 ± 6.83^a,c nmol/g (w.w.)"
same,CMP concentration,[1],"30.12 ± 9.97^a,h nmol/g (w.w.)"
same,CTP concentration,[1],"18.98 ± 6.58^a,g nmol/g (w.w.)"
same,CoA-SH concentration,[1],"21.61 ± 3.42^a,h nmol/g (w.w.)"
same,GDP concentration,[1],158.72 ± 24.57^a nmol/g (w.w.)
same,GDP glucose concentration,[1],38.71 ± 6.86 nmol/g (w.w.)
same,GMP concentration,[1],"177.00 ± 32.39^a,g nmol/g (w.w.)"
same,GSH concentration,[1],"2649.50 ± 397.31^a,d nmol/g (w.w.)"
same,GSSG concentration,[1],185.21 ± 48.10 nmol/g (w.w.)
same,GTP concentration,[1],"255.29 ± 45.21^a,g nmol/g (w.w.)"
same,IMP concentration,[1],"67.71 ± 10.63^g,i nmol/g (w.w.)"
same,MDA concentration,[1],"12.47 ± 2.09^a,c,g nmol/g (w.w.)"
same,NAA concentration,[1],6147.91 ± 989.12^a nmol/g (w.w.)
same,NADH concentration,[1],"15.49 ± 2.05^c,j nmol/g (w.w.)"
same,NADPH concentration,[1],6.22 ± 1.73 nmol/g (w.w.)
same,NADP^+ concentration,[1],17.95 ± 3.28^a nmol/g (w.w.)
same,NAD^+ concentration,[1],"404.63 ± 51.10^a,c,i nmol/g (w.w.)"
same,NO2 concentration,[1],216.03 ± 41.74^a nmol/g (w.w.)
same,NO3 concentration,[1],210.64 ± 91.95^d nmol/g (w.w.)
same,UDP concentration,[1],"61.83 ± 10.23^a,g nmol/g (w.w.)"
same,UDP-Gal concentration,[1],119.45 ± 12.50 nmol/g (w.w.)
same,UDP-GalNac concentration,[1],19.17 ± 4.01^a nmol/g (w.w.)
same,UDP-Glc concentration,[1],32.14 ± 4.59^g nmol/g (w.w.)
same,UDP-GlcNac concentration,[1],"95.85 ± 19.73^h,i nmol/g (w.w.)"
same,UMP concentration,[1],107.80 ± 21.62 nmol/g (w.w.)
same,UTP concentration,[1],123.46 ± 15.42^d nmol/g (w.w.)
same,acetyl-CoA concentration,[1],"21.56 ± 6.22^a,g,i nmol/g (w.w.)"
same,adenine concentration,[1],"44.82 ± 6.31^a,d,g nmol/g (w.w.)"
same,ascorbic acid concentration,[1],"3733.10 ± 277.88^a,d nmol/g (w.w.)"
same,creatinine concentration,[1],"24.55 ± 3.20^b,g,i nmol/g (w.w.)"
same,cytidine concentration,[1],15.40 ± 3.04 nmol/g (w.w.)
same,cytosine concentration,[1],"17.69 ± 2.50^b,d nmol/g (w.w.)"
same,guanine concentration,[1],4.80 ± 1.24^b nmol/g (w.w.)
same,guanosine concentration,[1],20.71 ± 5.66 nmol/g (w.w.)
same,hypoxanthine concentration,[1],14.47 ± 2.87^a nmol/g (w.w.)
same,inosine concentration,[1],92.55 ± 31.20^c nmol/g (w.w.)
same,malonyl-CoA concentration,[1],12.33 ± 1.82^b nmol/g (w.w.)
same,orotic acid concentration,[1],"8.80 ± 2.45^b,h,j nmol/g (w.w.)"
same,thymidine concentration,[1],0.69 ± 0.11 nmol/g (w.w.)
same,uracil concentration,[1],14.56 ± 5.44 nmol/g (w.w.)
same,uric acid concentration,[1],"23.62 ± 3.77^a,d,h nmol/g (w.w.)"
same,uridine concentration,[1],"76.35 ± 12.85^a,c nmol/g (w.w.)"
same,xanthine concentration,[1],9.46 ± 2.34^d nmol/g (w.w.)
same,β-pseudouridine concentration,[1],"6.65 ± 1.30^g,i nmol/g (w.w.)"
same,ADO concentration,[2],82.11 ± 16.51^a nmol/g (w.w.)
same,ADP concentration,[2],"264.07 ± 28.29^b,e,j nmol/g (w.w.)"
same,ADP-ribose concentration,[2],"141.96 ± 23.56^a,e,j nmol/g (w.w.)"
same,AMP concentration,[2],"57.70 ± 23.01^a,e,j nmol/g (w.w.)"
same,ATP concentration,[2],"1632.23 ± 90.07^a,e,j nmol/g (w.w.)"
same,CDP choline concentration,[2],6.91 ± 1.86 nmol/g (w.w.)
same,CDP concentration,[2],24.29 ± 6.76^a nmol/g (w.w.)
same,CMP concentration,[2],"15.68 ± 2.12^f,j nmol/g (w.w.)"
same,CTP concentration,[2],"32.63 ± 3.99^e,i nmol/g (w.w.)"
same,CoA-SH concentration,[2],30.57 ± 6.02^f nmol/g (w.w.)
same,GDP concentration,[2],"126.70 ± 31.35^a,j nmol/g (w.w.)"
same,GDP glucose concentration,[2],49.25 ± 10.33^a nmol/g (w.w.)
same,GMP concentration,[2],"91.47 ± 12.35^e,i nmol/g (w.w.)"
same,GSH concentration,[2],"2821.50 ± 242.82^a,e nmol/g (w.w.)"
same,GSSG concentration,[2],219.54 ± 53.36 nmol/g (w.w.)
same,GTP concentration,[2],"336.65 ± 35.18^a,e,j nmol/g (w.w.)"
same,IMP concentration,[2],102.63 ± 22.09^a nmol/g (w.w.)
same,MDA concentration,[2],"4.82 ± 1.73^a,e,i nmol/g (w.w.)"
same,NAA concentration,[2],"7262.84 ± 749.73^a,e nmol/g (w.w.)"
same,NADH concentration,[2],13.12 ± 4.19^e nmol/g (w.w.)
same,NADPH concentration,[2],7.05 ± 2.21 nmol/g (w.w.)
same,NADP^+ concentration,[2],"21.27 ± 4.19^b,e,j nmol/g (w.w.)"
same,NAD^+ concentration,[2],"401.18 ± 34.53^a,e,i nmol/g (w.w.)"
same,NO2 concentration,[2],226.40 ± 30.95^b nmol/g (w.w.)
same,NO3 concentration,[2],"198.56 ± 25.93^e,i nmol/g (w.w.)"
same,UDP concentration,[2],"40.38 ± 8.50^a,i nmol/g (w.w.)"
same,UDP-Gal concentration,[2],145.14 ± 27.76 nmol/g (w.w.)
